In patent US9278942B2, “Non-steroidal compounds as androgen receptor modulators” (FLX Discoveries Oy, priority 2011, dated 2016):

Tests used:
human AR = target: T1, human AR (Homo sapiens, UniProt P10275); test: Competitive AR binding assay against [3H]-R1881 in transiently transfected COS-1 cells; conditions: Table 1; compound 13.4 μM; [3H]-R1881 1.34 nM; complete inhibition equals 100%; read-out: Inhibition of [3H]-R1881 binding at 1.34 nM ± S.D.
T1 construct: expressed in transfected cells; host or cells: COS-1
T1 sequence (P10275 1-920): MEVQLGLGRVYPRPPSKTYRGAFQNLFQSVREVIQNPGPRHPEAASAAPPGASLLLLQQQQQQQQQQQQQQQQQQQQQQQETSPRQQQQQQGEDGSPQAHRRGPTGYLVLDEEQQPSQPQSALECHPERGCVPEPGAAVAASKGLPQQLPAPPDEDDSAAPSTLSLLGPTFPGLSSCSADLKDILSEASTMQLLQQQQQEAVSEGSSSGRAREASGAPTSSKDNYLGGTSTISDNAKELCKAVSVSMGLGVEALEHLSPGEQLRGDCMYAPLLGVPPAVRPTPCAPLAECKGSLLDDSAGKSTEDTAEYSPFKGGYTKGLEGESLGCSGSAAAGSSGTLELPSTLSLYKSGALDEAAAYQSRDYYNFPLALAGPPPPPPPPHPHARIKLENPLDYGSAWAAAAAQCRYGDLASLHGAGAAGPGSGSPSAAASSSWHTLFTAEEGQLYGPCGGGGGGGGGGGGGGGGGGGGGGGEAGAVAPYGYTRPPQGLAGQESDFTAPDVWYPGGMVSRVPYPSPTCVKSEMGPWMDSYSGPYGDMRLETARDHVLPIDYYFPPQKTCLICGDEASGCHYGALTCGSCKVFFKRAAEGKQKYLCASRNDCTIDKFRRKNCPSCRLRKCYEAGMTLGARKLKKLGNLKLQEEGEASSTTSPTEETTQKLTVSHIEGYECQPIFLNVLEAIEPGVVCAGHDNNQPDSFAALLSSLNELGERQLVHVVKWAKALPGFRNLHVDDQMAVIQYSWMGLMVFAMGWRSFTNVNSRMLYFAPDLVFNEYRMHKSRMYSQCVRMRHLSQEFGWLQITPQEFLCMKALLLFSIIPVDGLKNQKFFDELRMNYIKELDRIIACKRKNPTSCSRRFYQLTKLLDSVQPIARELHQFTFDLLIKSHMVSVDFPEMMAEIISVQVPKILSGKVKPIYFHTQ
How it was run: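 COS-1 cells transfected 24 h with human AR vector, then after 36 h exposed 2 h at 37° C to compound at 10000-fold molar excess over 1.34 nM [3H]-R1881. Cell-bound radioactivity counted in triplicate; result given as % inhibition of labelled R1881 binding.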

SMILES	melting point	inhibition at 13.4 µM (human AR)
N#Cc1ccc(C2=NOC(Cc3ccccc3)(c3ccccc3)C2)cc1 (centres unmarked) [Example 18, 4-(5-Benzyl-5-phenyl-4,5-dihydro-isoxazol-3-yl)-benzonitrile]	104.5 to 107 °C	
COc1ccccc1C1=NOC(Cc2ccccc2)(c2ccccc2)C1 (centres unmarked) [Example 12, 5-Benzyl-3-(2-methoxyphenyl)-5-phenyl-4,5-dihydro-isoxazole]	109.3 to 110.2 °C	
Clc1ccc(C2=NOC(Cc3ccccc3)(c3ccccc3)C2)cc1 (centres unmarked) [Example 16, 5-Benzyl-3-(4-chlorophenyl)-5-phenyl-4,5-dihydro-isoxazole]	120.3 to 122.1 °C	
O=[N+]([O-])c1ccc(C2=NOC(Cc3ccccc3)(c3ccccc3)C2)cc1 (centres unmarked) [Example 17, 5-Benzyl-3-(4-nitrophenyl)-5-phenyl-4,5-dihydro-isoxazole]	158 to 159.2 °C	
COc1ccc(C2=NOC(Cc3ccccc3)(c3ccccc3)C2)cc1 (centres unmarked) [Example 14, 5-Benzyl-3-(4-methoxyphenyl)-5-phenyl-4,5-dihydro-isoxazole]	139.3 to 141 °C	

The next lines start with the values.

melting point	inhibition at 13.4 µM (human AR)	SMILES
144.8 to 146.3 °C	63.7 ± 1.5%	CC1(Cc2ccccc2)CC(c2ccc3ccccc3c2)=NO1 (centres unmarked) [Example 9ab, 5-Benzyl-3-naphthalen-2-yl-5-methyl-4,5-dihydro-isoxazole]
134.3 to 135.2 °C	49.5 ± 4.3%	Fc1ccccc1C1=NOC(Cc2ccccc2)(c2ccccc2)C1 (centres unmarked) [Example 15ab, 5-Benzyl-3-(2-fluorophenyl)-5-phenyl-4,5-dihydro-isoxazole]
97.8 to 98.6 °C	49.6 ± 2%	COc1ccc(C2=NOC(C)(Cc3ccccc3)C2)cc1 (centres unmarked) [Example 3ab, 5-Benzyl-3-(4-methoxyphenyl)-5-methyl-4,5-dihydro-isoxazole]
